Measured values reported in ChEMBL document CHEMBL5257093, “3-Arylidene-2-oxindoles as GSK3β inhibitors and anti-thrombotic agents” (Bioorg Med Chem Lett, 2023).
pIC50: −log10 of the molar value.

How the values were obtained:
[1] = target: Glycogen synthase kinase-3 beta (Homo sapiens, UniProt P49841); experiment: Inhibition of recombinant human GSK3beta […] assessed as reduction in human muscle glycogen synthase type 1 fragment phosphorylation using YRRAAVPPSPSLSRHSSPHQ(pS)EDE as substrate in presence of ATP incubated for 60 mins by ADP-Glo kinase assay
Peritoneal macrophage = experiment: (§1) Cytotoxicity against mouse Peritoneal macrophages assessed as LDH release by LDH assay; type: toxicity, cell-based; conditions: peritoneal macrophage
Homo sapiens [2] = organism: Homo sapiens; experiment: Antiplatelet activity in platelet rich plasma (unknown origin) assessed as inhibition of collagen-induced platelet aggregation incubated for 5 mins by aggregometer analysis; type: functional
Homo sapiens [3] = organism: Homo sapiens; experiment: Antiplatelet activity in platelet rich plasma (unknown origin) assessed as inhibition of ADP-induced platelet aggregation incubated for 5 mins by aggregometer analysis; type: functional
Homo sapiens [4] = organism: Homo sapiens; experiment: cells; conditions: Platelet, Plasma, 5 min, read-out: INH
Description: Antiplatelet activity in platelet rich plasma (unknown origin) assessed as inhibition of ADP-induced platelet aggregation at 100 uM incubated for 5 mins by aggregometer analysis

Homo sapiens [5] = organism: Homo sapiens; experiment: cells; conditions: Platelet, Plasma, 5 min, read-out: INH; remark: listed apart in the source
Description: Antiplatelet activity in platelet rich plasma (unknown origin) assessed as inhibition of ADP-induced platelet aggregation at 1 uM incubated for 5 mins by aggregometer analysis

Homo sapiens [6] = organism: Homo sapiens; experiment: cells; conditions: Platelet, Plasma, 5 min, read-out: INH; remark: listed apart in the source
Description: Antiplatelet activity in platelet rich plasma (unknown origin) assessed as inhibition of ADP-induced platelet aggregation at 10 uM incubated for 5 mins by aggregometer analysis

[7] = as §1; type: toxicity, cell-based, Peritoneal macrophage; conditions: peritoneal macrophages
Rattus norvegicus = experiment: Antithrombotic activity FeCl3-induced carotid artery thrombosis rat model assessed as prolongation of artery occlusion time pretreated dosed IG for 2 hrs followed by 50% FeCl3 application; type: functional; conditions: po

Chain of Glycogen synthase kinase-3 beta (P49841 whole entry, the tested form may be a part): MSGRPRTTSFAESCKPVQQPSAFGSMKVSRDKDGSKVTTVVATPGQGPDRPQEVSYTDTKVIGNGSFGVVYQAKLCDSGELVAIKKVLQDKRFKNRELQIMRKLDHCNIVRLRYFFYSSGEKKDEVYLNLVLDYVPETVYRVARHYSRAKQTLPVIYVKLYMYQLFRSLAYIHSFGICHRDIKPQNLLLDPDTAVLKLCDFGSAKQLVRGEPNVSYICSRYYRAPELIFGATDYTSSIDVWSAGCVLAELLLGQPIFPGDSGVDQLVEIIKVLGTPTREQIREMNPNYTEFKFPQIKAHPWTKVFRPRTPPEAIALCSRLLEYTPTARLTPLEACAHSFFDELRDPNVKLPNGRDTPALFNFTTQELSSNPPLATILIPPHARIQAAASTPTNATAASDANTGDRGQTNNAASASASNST

Question: With O=C1Nc2ccccc2/C1=C\c1ccc(O)cc1 as the compound, how does the pIC50 [1] read?
Answer: < 4.30

Question: For O=C1Nc2ccccc2C12CC2c1ccccn1 (stereo not given), which CC50 (Peritoneal macrophage) is on record?
Answer: > 100 µM

Question: What about the pIC50 (Homo sapiens [2]; read-out: IC50) of the same compound?
Answer: 4.43

Question: What about the pIC50 (Homo sapiens [3]; read-out: IC50) of the same compound?
Answer: 5.05

Question: With Nc1ccc(CC2C(=O)Nc3ccccc32)cc1 (stereo not given) as the compound, how does the pIC50 [1] read?
Answer: 4.30

Question: With Cc1ccc(C(=O)CC2(O)C(=O)Nc3ccc(NC(=O)c4ccccc4)cc32)cc1 (stereo not given) as the compound, how does the pIC50 [1] read?
Answer: 5.77

Question: With O=C1Nc2ccc([N+](=O)[O-])cc2/C1=C\c1cccnc1 as the compound, how does the pIC50 [1] read?
Answer: 4.70

Question: Which CC50 (Peritoneal macrophage) does the source give for O=C1Nc2ccc(NC(=O)c3ccccc3)cc2/C1=C\c1ccc(O)cc1 here?
Answer: > 100 µM

Question: And the inhibition at 100 µM (Homo sapiens [4])?
Answer: 72.3%

Question: And the inhibition at 1 µM (Homo sapiens [5])?
Answer: 19.3%

Question: And the pIC50 (Homo sapiens [2]; read-out: IC50)?
Answer: 4.33

Question: And the inhibition at 10 µM (Homo sapiens [6])?
Answer: 37.2%

Question: What about the pIC50 (Homo sapiens [3]; read-out: IC50) of the same compound?
Answer: 4.73

Question: With COCC(=O)c1[nH]ncc1/C=C1\C(=O)Nc2ccccc21 as the compound, how does the pIC50 [1] read?
Answer: 5.17

Question: With CC(=O)Nc1ccc2c(c1)/C(=C\c1cccnc1)C(=O)N2 as the compound, how does the pIC50 [1] read?
Answer: < 4.30

Question: With CN1C(=O)/C(=C/c2ccccn2)c2ccccc21 as the compound, how does the pIC50 [1] read?
Answer: < 4.30

Question: With COC(=O)Nc1ccc2c(c1)/C(=C\c1ccc([N+](=O)[O-])cc1)C(=O)N2 as the compound, how does the pIC50 [1] read?
Answer: 6.46

Question: With Cn1cc(/C=C2/C(=O)Nc3ccccc32)cn1 as the compound, how does the pIC50 [1] read?
Answer: 4.87

Question: With CCOC(=O)c1[nH]ncc1/C=C1\C(=O)Nc2ccc([N+](=O)[O-])cc21 as the compound, how does the pIC50 [1] read?
Answer: 5.75

Question: With Nc1ccc2c(c1)C(Cc1ccccn1)C(=O)N2 (stereo not given) as the compound, how does the pIC50 [1] read?
Answer: < 4.30

Question: Which CC50 (Peritoneal macrophage) does the source give for COC(=O)Nc1ccc2c(c1)/C(=C\c1ccc(O)cc1)C(=O)N2 here?
Answer: > 100 µM

Question: And the pIC50 (Homo sapiens [2]; read-out: IC50)?
Answer: < 4.00

Question: What about the pIC50 (Homo sapiens [3]; read-out: IC50) of the same compound?
Answer: 4.87

Question: With O=C1Nc2ccccc2C1Cc1cccnc1 (stereo not given) as the compound, how does the pIC50 [1] read?
Answer: 8.38

Question: And the CC50 [7]?
Answer: > 100 µM

Question: What about the ED50 (Rattus norvegicus) of the same compound?
Answer: 7.3 mg/kg

Question: And the inhibition at 100 µM (Homo sapiens [4])?
Answer: 75.6%

Question: What about the inhibition at 1 µM (Homo sapiens [5]) of the same compound?
Answer: 26.5%

Question: And the pIC50 (Homo sapiens [2]; read-out: IC50)?
Answer: 5.52

Question: What about the inhibition at 10 µM (Homo sapiens [6]) of the same compound?
Answer: 55.6%

Question: With CC(=O)Nc1ccc2c(c1)/C(=C\c1ccc(O)cc1)C(=O)N2 as the compound, how does the pIC50 [1] read?
Answer: 4.46

Question: With Cc1n[nH]cc1/C=C1/C(=O)Nc2ccccc21 as the compound, how does the pIC50 [1] read?
Answer: 5.25

Question: With CC(=O)Oc1ccccc1C(=O)O [ASPIRIN] as the compound, how does the ED50 (Rattus norvegicus) read?
Answer: 137 mg/kg

Question: What about the pIC50 (Homo sapiens [2]) of the same compound?
Answer: 5.35

Question: What about the pIC50 (Homo sapiens [3]) of the same compound?
Answer: 4.09
